Laboratory results from PubChem BioAssay AID588646 (The Scripps Research Institute Molecular Screening Center, 2011).
The source made the active and inactive calls.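 The calls were made as follows: active = phosphorylated p38 level fell or rose by at least 30% against DMSO-treated cells; inactive = change under 30% either way.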

Biological target: Mitogen-activated protein kinase 14 (Homo sapiens) (UniProt Q16539)
Assay: phospho-p38 protein level change, either direction, late-stage follow-up, counter-screen for KLF5 inhibitor project, cell-based, HCT116 colorectal carcinoma, chemiluminescent western blot (AID 588646)
Conditions: 24 h, at 10 µM; for inhibition: measured here: phospho-p38 inhibition percent

Mitogen-activated protein kinase 14 (Homo sapiens), sequence (Q16539 whole entry, looked up): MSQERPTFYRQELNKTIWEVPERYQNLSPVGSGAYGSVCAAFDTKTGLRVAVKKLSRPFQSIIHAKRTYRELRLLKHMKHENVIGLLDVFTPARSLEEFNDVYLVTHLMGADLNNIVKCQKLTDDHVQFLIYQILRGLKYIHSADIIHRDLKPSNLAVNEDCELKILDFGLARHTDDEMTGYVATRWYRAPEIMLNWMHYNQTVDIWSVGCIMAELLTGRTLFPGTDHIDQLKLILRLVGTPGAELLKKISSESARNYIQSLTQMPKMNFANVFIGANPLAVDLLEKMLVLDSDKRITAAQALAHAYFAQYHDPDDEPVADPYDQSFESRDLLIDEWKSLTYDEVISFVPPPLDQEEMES

fold change | inhibition [%] | SMILES
2.03 | -103 | CN(C(=O)COC(=O)/C=C/c1cccc([N+](=O)[O-])c1)C1CCS(=O)(=O)C1 (stereo not given)
-1.14 (inactive) | 11.9 | CN(C(=O)CNC(=O)/C=C/c1cccc(Cl)c1)C1CCS(=O)(=O)C1 (stereo not given)
7.64 | – | CN(C(=O)CNC(=O)/C=C/c1cccc(Cl)c1)C1CCS(=O)(=O)CC1
